Test [1] concerns rat oligodendrocyte progenitor CG4 line. Briefly: Differentiation assay on rat oligodendrocyte progenitor CG4 line (HCS, mCherry+). The test is classed as cell-based. The settings on record: secondary screen of 49 selected compounds, 1 μM, 5 days. An outline of the steps:
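Double-reporter CG4 cells (mCherry in mature oligodendrocytes, EGFP in all lineage stages) proliferated 24 h, then given compounds at 1 μM for 5 days of differentiation, ⅔ medium changed at day 3. 9cis-RA as positive control, basal medium and 0.1% DMSO as negative; triplicates imaged by HCS, 35 fields/well.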

Test [2] has as its system human iPS-derived neuroprecursors. The experiment in a line: Differentiation of human iPS-derived neuroprecursors into MBP+ oligodendrocytes. Format: cell-based. The settings on record: 1 μM in minimal medium, p<0.05. The gist of the method:
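Human iPS-derived NPCs with doxycycline-inducible SOX10/OLIG2/NKX6.2 were differentiated, replated on day 7, then treated in minimal medium with compound at 1 μM (DMSO vehicle negative control, 60 ng/mL T3 positive control) until fixation on day 21. MBP+ cells were counted manually by immunocytochemistry against DAPI-counted nuclei.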

For the compound `O=C(c1ccc(CN2CCOCC2)cc1)N1CCN(C2CC2)CC1` [Bavisant], the “CG4 differentiation compared with 9cis-RA positive control” value (“CG4 differentiation” below) in test [1] is reported as “promoting differentiation significantly higher than 9cis-RA positive control”. In test [2], the “differentiation into MBP+ oligodendrocytes” value was “promote significantly (p<0.05) the differentiation into MBP+ oligodendrocytes”.

With `CC(=O)N1CCN([C@H]2CCN(C(=O)N(C)[C@H](C)c3cc(C(F)(F)F)cc(C(F)(F)F)c3)[C@@H](c3ccc(F)cc3C)C2)CC1` [Casopitant], in test [1], the “CG4 differentiation” value is “promoting differentiation significantly higher than 9cis-RA positive control”. Also, the “differentiation into MBP+ oligodendrocytes” value in test [2] is given as “promote significantly (p<0.05) the differentiation into MBP+ oligodendrocytes”.

With `CCOC(=O)[C@@H](N)CCC(=O)N[C@@H](CSCc1ccccc1)C(=O)N[C@@H](C(=O)OCC)c1ccccc1.Cl` [Ezatiostat hydrochloride, Ezatiostat Hydrochloride], in test [1], the “CG4 differentiation” value is listed as “promoting differentiation significantly higher than 9cis-RA positive control”. Moreover, the “differentiation into MBP+ oligodendrocytes” value in test [2] (Hydrochloride) is given as “promote significantly (p<0.05) the differentiation into MBP+ oligodendrocytes”.

With `C[C@H](Nc1cc(-c2cnn(C)c2)cc(Nc2cnccn2)n1)c1ccc(F)cc1` [NS-018], in test [1], the “CG4 differentiation” value is recorded as “promoting differentiation significantly higher than 9cis-RA positive control”. In addition, the “differentiation into MBP+ oligodendrocytes” value in test [2] was “promote significantly (p<0.05) the differentiation into MBP+ oligodendrocytes”.

On to `NCCCC[C@H](NC(=O)[C@@H](Cc1cc(Br)c(O)c(Br)c1)NC(=O)N1CCC(N2Cc3ccccc3NC2=O)CC1)C(=O)N1CCN(c2ccncc2)CC1` [Olcegepant], for which the “CG4 differentiation” value in test [1] was “promoting differentiation significantly higher than 9cis-RA positive control”. The “differentiation into MBP+ oligodendrocytes” value in test [2] is reported as “promote significantly (p<0.05) the differentiation into MBP+ oligodendrocytes”.

On to `O=C(NOC[C@H](O)CO)c1ccc(F)c(F)c1Nc1ccc(I)cc1F` [PD-0325901], for which the “CG4 differentiation” value in test [1] is “promoting differentiation significantly higher than 9cis-RA positive control”. Moreover, the “differentiation into MBP+ oligodendrocytes” value in test [2] is recorded as “promote significantly (p<0.05) the differentiation into MBP+ oligodendrocytes”.

Regarding `CC(=O)[C@H]1CC[C@H]2[C@@H]3CCC4=CC(=O)CC[C@]4(C)[C@H]3CC[C@]12C` [Progesterone], the “CG4 differentiation” value in test [1] was “promoting differentiation significantly higher than 9cis-RA positive control”. For the same compound, the “differentiation into MBP+ oligodendrocytes” value in test [2] is recorded as “promote significantly (p<0.05) the differentiation into MBP+ oligodendrocytes”.

On to `CC1(C)CCC(C)(C)c2cc(NC(=O)c3ccc(C(=O)O)cc3)ccc21` [Tamibarotene], for which, in test [1], the “CG4 differentiation” value is on record as “promoting differentiation significantly higher than 9cis-RA positive control”.

(Values after patent US20240148745A1, “COMPOUNDS FOR USE IN PROGRESSIVE MULTIPLE SCLEROSIS” (FONDAZIONE CENTRO SAN RAFFAELE, priority 2021, published 2024).)
